Target: c-kit WT (Homo sapiens (Human), UniProt P10721)
Assay: Proliferation assay (CellTiter-Blue) on BaF3 Kit WT cell line
Assay type: cell-based
Conditions: BaF3 Kit WT cell line (murine Ba/F3 expressing Human Kit WT, with murine SCF), 48 hours
How it was run: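 Ba/F3 cells expressing human Kit WT, maintained in RPMI/10% FCS with 250 ng/ml murine SCF, were seeded at 2.10^4 cells/well and exposed to ½ serial dilutions (0–10 μM) for 48 h at 37° C. Viability was measured by CellTiter-Blue fluorescence (544Ex/590Em, 4 h) in triplicate as % of untreated proliferation.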

Chain of c-kit WT (P10721 26-976): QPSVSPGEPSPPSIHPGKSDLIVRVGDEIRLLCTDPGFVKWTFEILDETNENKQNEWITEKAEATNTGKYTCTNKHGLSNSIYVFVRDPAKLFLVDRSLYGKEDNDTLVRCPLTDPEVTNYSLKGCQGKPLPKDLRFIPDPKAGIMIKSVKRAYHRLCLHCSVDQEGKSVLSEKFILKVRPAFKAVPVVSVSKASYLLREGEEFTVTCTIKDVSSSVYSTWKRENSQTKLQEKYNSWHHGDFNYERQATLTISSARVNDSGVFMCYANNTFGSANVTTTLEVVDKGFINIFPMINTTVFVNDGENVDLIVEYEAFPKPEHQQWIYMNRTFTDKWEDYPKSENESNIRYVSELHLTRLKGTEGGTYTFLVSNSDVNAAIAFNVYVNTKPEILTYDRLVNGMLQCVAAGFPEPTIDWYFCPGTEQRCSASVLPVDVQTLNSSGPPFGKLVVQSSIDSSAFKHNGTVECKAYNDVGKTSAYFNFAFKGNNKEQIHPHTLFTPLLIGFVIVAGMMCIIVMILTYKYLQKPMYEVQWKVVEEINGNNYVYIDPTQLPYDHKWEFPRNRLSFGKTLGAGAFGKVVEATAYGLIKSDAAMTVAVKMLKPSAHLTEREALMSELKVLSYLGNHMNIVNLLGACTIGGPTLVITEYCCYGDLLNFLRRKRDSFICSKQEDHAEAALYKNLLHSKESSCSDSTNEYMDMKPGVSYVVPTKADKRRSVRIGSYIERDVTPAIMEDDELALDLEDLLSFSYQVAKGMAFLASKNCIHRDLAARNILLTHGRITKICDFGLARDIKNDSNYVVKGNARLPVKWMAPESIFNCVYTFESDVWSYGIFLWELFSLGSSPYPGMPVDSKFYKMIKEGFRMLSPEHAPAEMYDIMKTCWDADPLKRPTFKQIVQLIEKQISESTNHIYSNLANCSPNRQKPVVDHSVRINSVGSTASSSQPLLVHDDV

IC50 [nM]	SMILES
≤ 1000	Cc1cccc(-c2nc3cc(Nc4nc(-c5cccc(C#N)c5)cs4)c(C)cc3[nH]2)c1 [Compound 129, 3-[2-(6-Methyl-2-m-tolyl-1H-benzoimidazol-5-ylamino)-thiazol-4-yl]-benzonitrile]
≤ 1000	Cc1cc2[nH]c(-c3cccc(C(C)C)c3)nc2cc1Nc1nc(-c2cccnc2)cs1 [Compound 136, [2-(3-Isopropyl-phenyl)-6-methyl-1H-benzoimidazol-5-yl]-(4-pyridin-3-yl-thiazol-2-yl)-amine]
≤ 1000	Cc1cc2c(cc1Nc1nc(-c3ccncc3)cs1)nc(-c1cccc(C(F)(F)F)c1)n2C(C)C [Compound 101, [1-Isopropyl-6-methyl-2-(3-trifluoromethyl-phenyl)-1H-benzoimidazol-5-yl]-(4-pyridin-4-yl-thiazol-2-yl)-amine]
≤ 1000	Cc1cc2nc(-c3cccc(C(F)F)c3)[nH]c2cc1Nc1nc(-c2ccc(C#N)cc2)cs1 [Compound 069, 4-{2-[2-(3-Difluoromethyl-phenyl)-6-methyl-3H-benzoimidazol-5-ylamino]-thiazol-4-yl}-benzonitrile]
≤ 1000	Cc1cc2c(cc1Nc1nc(-c3cccnc3)cs1)nc(-c1cccc(C(F)(F)F)c1)n2C [Compound 085, [1,6-Dimethyl-2-(3-trifluoromethyl-phenyl)-1H-benzoimidazol-5-yl]-(4-pyridin-3-yl-thiazol-2-yl)-amine]
≤ 1000	Cc1cc2c(cc1Nc1nc(-c3cccnc3)cs1)nc(-c1cccc(C(F)F)c1)n2C [Compound 084, [2-(3-Difluoromethyl-phenyl)-1,6-dimethyl-1H-benzoimidazol-5-yl]-(4-pyridin-3-yl-thiazol-2-yl)-amine]
≤ 1000	Cc1cc2nc(-c3cncc(C(F)(F)F)c3)[nH]c2cc1Nc1nc(-c2cccnc2)cs1 [Compound 049, [6-Methyl-2-(5-trifluoromethyl-pyridin-3-yl)-3H-benzoimidazol-5-yl]-(4-pyridin-3-yl-thiazol-2-yl)-amine]
1000 to 10000	C=CS(=O)(=O)Nc1cccc(-c2nc3cc(Nc4nc(-c5ccncc5)cs4)c(C)cc3n2C)c1 [Compound 135, Ethenesulfonic acid {3-[1,6-dimethyl-5-(4-pyridin-4-yl-thiazol-2-ylamino)-1H-benzoimidazol-2-yl]-phenyl}-amide]
1000 to 10000	Cc1cc2nc(-c3cccc(S(C)(=O)=O)c3)[nH]c2cc1Nc1nccc(-c2cccnc2)n1 [Compound 038, [2-(3-Methanesulfonyl-phenyl)-6-methyl-3H-benzoimidazol-5-yl]-(4-pyridin-3-yl-pyrimidin-2-yl)-amine]
1000 to 10000	Cn1c(-c2cccc(C(F)(F)F)c2)nc2cc(Nc3nc(-c4cccnc4)cs3)ccc21 [Compound 091, [1-Methyl-2-(3-trifluoromethyl-phenyl)-1H-benzoimidazol-5-yl]-(4-pyridin-3-yl-thiazol-2-yl)-amine]
≤ 1000	Cc1cc2nc(-c3cc(F)cc(C(F)(F)F)c3)[nH]c2cc1Nc1nc(-c2cccnc2)cs1 [Compound 058, [2-(3-Fluoro-5-trifluoromethyl-phenyl)-6-methyl-3H-benzoimidazol-5-yl]-(4-pyridin-3-yl-thiazol-2-yl)-amine]
≤ 1000	Cc1cc2nc(-c3ccc(-n4cccn4)cc3)[nH]c2cc1Nc1nc(-c2cccnc2)cs1 [Compound 057, [6-Methyl-2-(4-pyrazol-1-yl-phenyl)-3H-benzoimidazol-5-yl]-(4-pyridin-3-yl-thiazol-2-yl)-amine]
≤ 1000	Cc1cccc(-c2nc3cc(C)c(Nc4nc(-c5ccncc5)cs4)cc3[nH]2)c1 [Compound 034, (6-Methyl-2-m-tolyl-3H-benzoimidazol-5-yl)-(4-pyridin-4-yl-thiazol-2-yl)-amine]
≤ 1000	Cc1cc2c(cc1Nc1nc(-c3ccncc3)cs1)nc(-c1cccc(C(F)F)c1)n2C [Compound 081, [2-(3-Difluoromethyl-phenyl)-1,6-dimethyl-1H-benzoimidazol-5-yl]-(4-pyridin-4-yl-thiazol-2-yl)-amine]
